Here are results for ten compounds from patent US9708314B2, “Heterocyclic amide compound” (NISSAN CHEMICAL INDUSTRIES, LTD., priority 2013, dated 2017).

Common to all, as to assay type: in vivo
Data set [1] has as its system Echinochloa oryzacola Vasing. The data set can be described thus: Test Example 2: herbicidal activity, application during weed generation in submerged conditions. The settings on record: Eighteenth Table. An excerpt:
(§1) 5 Herbicidal ratio of 90% or more (almost completely withered) 4 Herbicidal ratio of 70% or more and less than 90% 3 Herbicidal ratio of 40% or more and less than 70% 2 Herbicidal ratio of 20% or more and less than 40% 1 Herbicidal ratio of 5% or more and less than 20% 0 Herbicidal ratio of 5% or less (almost no effect) [Test Example 2] Herbicidal Activity Test by Application During Weed Generation in Submerged Conditions After alluvial soil was placed into 1/10000 are of Wagner pot, water was poured and mixed to form a submerged condition having a water depth of 4 cm. Seeds of Echinochloa oryzacola Vasing., Scirpus juncoides, and Monochoria vaginalis were sowed in a mixed manner in the above pot and the pot was placed in the greenhouse of 25° C. to 30° C. to grow the plants. When Echinochloa oryzacola Vasing., Scirpus juncoides, and Monochoria vaginalis were grown to one leaf stage to two leaf stage, the emulsion agent containing the compound of the present invention prepared in accordance with Formulation Example 2 was diluted with water so as to be a predetermined herbicide amount and the diluted compound was applied to the surface of the water. Three weeks after the herbicide application, effects on each plant were investigated in accordance with the criteria of Test Example 1. A: Echinochloa oryzicola Vasing., B: Scirpus juncoides, C: Monochoria vaginalis, D: Leptochloa chinensis, E: Cyperus difformis, F: Digitaria ciliaris, G: Setaria viridis, H: Echinochloa crus-galli var. crus-galli, I: Avena fatua, J: Alopecurus myosuroides, K: Lolium multiflorum Lam., L: Apera spica-venti., M: Abutilon theophrasti, N: Amaranthus retroflexus, O: Chenopodium album, P: Stellaria media, Q: Galium spurium, R: Veronica persica, a: transplanted Oryza sativa, b: directly sowed Oryza sativa, c: Zea mays, d: Glycine max, e: Triticum aestivum, f: Beta vulgaris ssp. vulgaris, and g: Brassica campestris L. The application herbicide amount (g/ha) means an amount that a concentration is adjusted so that, when an application amount is converted into per hectare (1 ha), the herbicide is applied by the number of grams (g) of the described value.

Data set [2] relates to Monochoria vaginalis. Described as above. The settings on record: Eighteenth Table.
Text: as §1

For data set [3], the system named is Beta vulgaris ssp. vulgaris. The data set is described as follows: Test Example 4: effect on crop by application to foliage (diluvial soil, plastic box). The settings on record: for f: Application herbicide amount 320 g/ha, effect on crop; for f (Beta vulgaris ssp. vulgaris) effect on crop: application to foliage, application herbicide amount 320 g/ha. In a few lines: (§2)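 Scores run from 0 (herbicidal ratio ≤5%) to 5 (≥90%, almost fully withered) and were assessed three weeks after foliar spraying. Seedlings had been raised for 14 days at 25-30° C in sterilized diluvial soil before treatment, with the emulsion diluted in water to the stated g/ha dose.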

The test system of data set [4] is Brassica campestris L. The description is as above. Conditions: for g: Application herbicide amount 320 g/ha, effect on crop; for g (Brassica campestris L.) effect on crop: application to foliage, application herbicide amount 320 g/ha. In a few lines:
as §2

For data set [5], the system named is Glycine max. The description is as above. Conditions: for c: Application herbicide amount 320 g/ha, effect on crop; for c (Glycine max) effect on crop: application to foliage, application herbicide amount 320 g/ha. A digest of the protocol: as §2
In data set [6] the test system is Triticum aestivum. The description is as above. Conditions: for e: Application herbicide amount 320 g/ha, effect on crop; for e (Triticum aestivum) effect on crop: application to foliage, application herbicide amount 320 g/ha. A digest of the protocol: as §2
Data set [7] has as its system Zea mays. The description is as above. The settings on record: for b: Application herbicide amount 320 g/ha, effect on crop; for b (Zea mays) effect on crop: application to foliage, application herbicide amount 320 g/ha. A digest of the protocol:
as §2

The test system of data set [8] is directly sowed Oryza sativa. The data set is described as above. Conditions: for d: Application herbicide amount 320 g/ha, effect on crop; for d (directly sowed Oryza sativa) effect on crop: application to foliage, application herbicide amount 320 g/ha. In a few lines:
as §2

The subject of data set [9] is Scirpus juncoides. The data set is described as follows: Test Example 2: herbicidal activity, application during weed generation in submerged conditions. Conditions: Eighteenth Table.
Text: as §1

[10] abbreviates: application herbicide amount 320 g/ha.
Where [11] appears, read: application herbicide amount 288 g/ha.
Setting [12] is: Application herbicide amount 288 g/ha, foliage application.

Take `CCCSc1nnc2c(C(=O)Nc3nnc(C)o3)ccc(C(F)(F)F)n12` [1-087]: the “A (Echinochloa oryzicola Vasing.) herbicidal ratio grade” value in data set [1] (setting [10]) was 4 (Herbicidal ratio of 70% or more and less than 90%). For the same compound, the “C (Monochoria vaginalis) herbicidal ratio grade” value in data set [2] (setting [10]) was 3 (Herbicidal ratio of 40% or more and less than 70%). Moreover, the f in data set [3] is on record as 5 (Herbicidal ratio of 90% or more (almost completely withered)). Besides, the g in data set [4] is 4 (Herbicidal ratio of 70% or more and less than 90%). The c in data set [5] was 4 (Herbicidal ratio of 70% or more and less than 90%). Besides, the e in data set [6] was 2 (Herbicidal ratio of 20% or more and less than 40%). For the same compound, the b in data set [7] was 0 (Herbicidal ratio of 5% or less (almost no effect)). Further, in [8], the d is 4 (Herbicidal ratio of 70% or more and less than 90%).
For `Cc1nnc(NC(=O)c2ccc(C(F)(F)F)n3c(CS(C)(=O)=O)nnc23)o1` [1-037], the “A (Echinochloa oryzicola Vasing.) herbicidal ratio grade” value in data set [1] (setting [10]) was 2 (Herbicidal ratio of 20% or more and less than 40%). In addition, the “B (Scirpus juncoides) herbicidal ratio grade” value in [9] (setting [10]) was 2 (Herbicidal ratio of 20% or more and less than 40%). The “f (Beta vulgaris ssp. vulgaris) effect on crop” value in data set [3] is 5 (Herbicidal ratio of 90% or more (almost completely withered)). Further, the “g (Brassica campestris L.) effect on crop” value in [4] is 4 (Herbicidal ratio of 70% or more and less than 90%). The “c (Glycine max) effect on crop” value in data set [5] is 1 (Herbicidal ratio of 5% or more and less than 20%). In addition, the “e (Triticum aestivum) effect on crop” value in data set [6] is 3 (Herbicidal ratio of 40% or more and less than 70%). Moreover, in [7], the “b (Zea mays) effect on crop” value was 0 (Herbicidal ratio of 5% or less (almost no effect)). In addition, the “d (directly sowed Oryza sativa) effect on crop” value in data set [8] was 3 (Herbicidal ratio of 40% or more and less than 70%).
As for `COc1cccc(-c2nnc3c(C(=O)Nc4nnc(C)o4)ccc(C(F)(F)F)n23)c1` [1-046], the “A (Echinochloa oryzicola Vasing.) herbicidal ratio grade” value in [1] (setting [10]) was 4 (Herbicidal ratio of 70% or more and less than 90%). Further, the “f (Beta vulgaris ssp. vulgaris) effect on crop” value in data set [3] is reported as 5 (Herbicidal ratio of 90% or more (almost completely withered)). The “g (Brassica campestris L.) effect on crop” value in [4] is 4 (Herbicidal ratio of 70% or more and less than 90%). In data set [5], the “c (Glycine max) effect on crop” value is 2 (Herbicidal ratio of 20% or more and less than 40%). In addition, the “e (Triticum aestivum) effect on crop” value in [6] is 0 (Herbicidal ratio of 5% or less (almost no effect)). In addition, the “b (Zea mays) effect on crop” value in [7] is 1 (Herbicidal ratio of 5% or more and less than 20%). Moreover, the “d (directly sowed Oryza sativa) effect on crop” value in data set [8] was 3 (Herbicidal ratio of 40% or more and less than 70%).
In the case of `CCS(=O)(=O)c1nnc2c(C(=O)Nc3nnc(C)o3)ccc(C(F)(F)F)n12` [1-041], the “A (Echinochloa oryzicola Vasing.) herbicidal ratio grade” value in data set [1] (setting [10]) is 2 (Herbicidal ratio of 20% or more and less than 40%). Moreover, the “B (Scirpus juncoides) herbicidal ratio grade” value in data set [9] (setting [10]) is 3 (Herbicidal ratio of 40% or more and less than 70%). In data set [3], the “f (Beta vulgaris ssp. vulgaris) effect on crop” value was 5 (Herbicidal ratio of 90% or more (almost completely withered)). The “g (Brassica campestris L.) effect on crop” value in data set [4] was 0 (Herbicidal ratio of 5% or less (almost no effect)). In data set [5], the “c (Glycine max) effect on crop” value is listed as 0 (Herbicidal ratio of 5% or less (almost no effect)). Further, the “e (Triticum aestivum) effect on crop” value in data set [6] is 3 (Herbicidal ratio of 40% or more and less than 70%). Also, in [7], the “b (Zea mays) effect on crop” value is 0 (Herbicidal ratio of 5% or less (almost no effect)). Further, the “d (directly sowed Oryza sativa) effect on crop” value in [8] is 2 (Herbicidal ratio of 20% or more and less than 40%).
Regarding `Cc1nnc(NC(=O)c2cc(C)c(C(F)(F)F)n3c(C(C)C)nnc23)o1` [1-075], the f in [3] was 1 (Herbicidal ratio of 5% or more and less than 20%). Moreover, the g in data set [4] is 1 (Herbicidal ratio of 5% or more and less than 20%). Also, in [5], the c is recorded as 0 (Herbicidal ratio of 5% or less (almost no effect)). Also, the e in [6] was 0 (Herbicidal ratio of 5% or less (almost no effect)). Further, in [7], the b is 0 (Herbicidal ratio of 5% or less (almost no effect)). For the same compound, in data set [8], the d is given as 0 (Herbicidal ratio of 5% or less (almost no effect)).
As for `C=CCSc1nnc2c(C(=O)Nc3nnco3)ccc(C(F)(F)F)n12` [1-128], the “A (Echinochloa oryzicola Vasing.) herbicidal ratio grade” value in data set [1] (setting [11]) was 1 (Herbicidal ratio of 5% or more and less than 20%). Besides, the “C (Monochoria vaginalis) herbicidal ratio grade” value in data set [2] (setting [11]) was 0 (Herbicidal ratio of 5% or less (almost no effect)). Further, the “B (Scirpus juncoides) herbicidal ratio grade” value in [9] (setting [11]) was 3 (Herbicidal ratio of 40% or more and less than 70%). Further, in [3] (setting [12]), the “f (Beta vulgaris ssp. vulgaris) effect on crop grade” value is 5 (Herbicidal ratio of 90% or more (almost completely withered)). Also, in [4] (setting [12]), the “g (Brassica campestris L.) effect on crop grade” value is 3 (Herbicidal ratio of 40% or more and less than 70%). Also, the “d (Glycine max) effect on crop grade” value in data set [5] (setting [12]) was 3 (Herbicidal ratio of 40% or more and less than 70%). The “e (Triticum aestivum) effect on crop grade” value in data set [6] (setting [12]) is 1 (Herbicidal ratio of 5% or more and less than 20%). For the same compound, the “c (Zea mays) effect on crop grade” value in [7] (setting [12]) is recorded as 0 (Herbicidal ratio of 5% or less (almost no effect)).
For the compound `Cc1nnc(NC(=O)c2ccc(C(F)(F)F)n3c(CO)nnc23)o1` [1-067], in [3], the f was 4 (Herbicidal ratio of 70% or more and less than 90%). Moreover, in data set [4], the g was 4 (Herbicidal ratio of 70% or more and less than 90%). Further, the c in data set [5] is 0 (Herbicidal ratio of 5% or less (almost no effect)). In data set [6], the e was 0 (Herbicidal ratio of 5% or less (almost no effect)). The b in [7] was 2 (Herbicidal ratio of 20% or more and less than 40%). Also, the d in data set [8] was 3 (Herbicidal ratio of 40% or more and less than 70%).
On to `Cc1nnc(NC(=O)c2ccc(C(F)(F)F)n3c(Nc4ccccc4)nnc23)o1` [1-082], for which, in [4], the g is 0 (Herbicidal ratio of 5% or less (almost no effect)). Also, in data set [5], the c is recorded as 0 (Herbicidal ratio of 5% or less (almost no effect)). For the same compound, the e in [6] is recorded as 0 (Herbicidal ratio of 5% or less (almost no effect)). Also, the b in [7] is 0 (Herbicidal ratio of 5% or less (almost no effect)). In [8], the d is 3 (Herbicidal ratio of 40% or more and less than 70%).
For `Cc1nnc(NC(=O)c2ccc(C(F)(F)F)n3c(S(C)(=O)=O)nnc23)o1` [1-040], the “A (Echinochloa oryzicola Vasing.) herbicidal ratio grade” value in data set [1] (setting [10]) is 3 (Herbicidal ratio of 40% or more and less than 70%). Moreover, the “B (Scirpus juncoides) herbicidal ratio grade” value in data set [9] (setting [10]) is 2 (Herbicidal ratio of 20% or more and less than 40%). In addition, the “f (Beta vulgaris ssp. vulgaris) effect on crop” value in data set [3] is 5 (Herbicidal ratio of 90% or more (almost completely withered)). Moreover, in [4], the “g (Brassica campestris L.) effect on crop” value was 1 (Herbicidal ratio of 5% or more and less than 20%). For the same compound, the “c (Glycine max) effect on crop” value in [5] is 0 (Herbicidal ratio of 5% or less (almost no effect)). In data set [6], the “e (Triticum aestivum) effect on crop” value is 3 (Herbicidal ratio of 40% or more and less than 70%). In addition, the “b (Zea mays) effect on crop” value in data set [7] was 0 (Herbicidal ratio of 5% or less (almost no effect)). In [8], the “d (directly sowed Oryza sativa) effect on crop” value was 1 (Herbicidal ratio of 5% or more and less than 20%).
For the compound `C#CC[S+]([O-])c1nnc2c(C(=O)Nc3nnc(C)o3)ccc(C(F)(F)F)n12` (stereo not shown) [1-077], the f in data set [3] is 3 (Herbicidal ratio of 40% or more and less than 70%). In addition, the g in [4] is 3 (Herbicidal ratio of 40% or more and less than 70%). In addition, in data set [5], the c was 0 (Herbicidal ratio of 5% or less (almost no effect)). Besides, the e in [6] is recorded as 0 (Herbicidal ratio of 5% or less (almost no effect)). Further, the b in data set [7] was 0 (Herbicidal ratio of 5% or less (almost no effect)). In addition, the d in [8] was 3 (Herbicidal ratio of 40% or more and less than 70%).
